# Experimental data as given in ChEMBL document CHEMBL1697781, “Assessment of the health effects of chemicals in humans: II. Construction of an adverse effects database for QSAR modeling” (Curr Drug Discov Technol, 2004).
# System: Hepatotoxicity
# Experiment: FDA HLAED, liver enzyme composite activity
# Settings: human
# Throughout, for GGT Increase - Index Value: reference of the scale not given here.
# Throughout, for LDH Increase - Index Value: reference of the scale not given here.
Compound,Composite Activity - Active,Composite Activity - Marginal,Composite Activity - Score
NCCC(O)(P(=O)(O)O)P(=O)(O)O [PAMIDRONIC ACID],2,0,Active
Fc1ccc([C@@H]2CCNC[C@H]2COc2ccc3c(c2)OCO3)cc1 [PAROXETINE],0,0,Inactive
CC(C)(C)NC[C@H](O)COc1ccccc1C1CCCC1 [PENBUTOLOL],0,0,Inactive
Nc1nc2c(ncn2CCC(CO)CO)c(=O)[nH]1 [PENCICLOVIR],0,0,Inactive
N=C(N)c1ccc(OCCCCCOc2ccc(C(=N)N)cc2)cc1 [PENTAMIDINE],0,0,Inactive
OC[C@H]1O[C@@H](n2cnc3c2NC=NC[C@H]3O)C[C@@H]1O [PENTOSTATIN],0,0,Inactive
CC(=O)CCCCn1c(=O)c2c(ncn2C)n(C)c1=O [PENTOXIFYLLINE],0,0,Inactive

# System: Hepatotoxicity
# Experiment: FDA HLAED, alkaline phosphatase increase
# Settings: human
Compound,Alkaline Phosphatase Increase - Activity Score,Alkaline Phosphatase Increase - Index Value,Alkaline Phosphatase Increase - Number of Reports
NCCC(O)(P(=O)(O)O)P(=O)(O)O [PAMIDRONIC ACID],Active,16.6,>= 4
Fc1ccc([C@@H]2CCNC[C@H]2COc2ccc3c(c2)OCO3)cc1 [PAROXETINE],Inactive,0.7,>= 4
CC(C)(C)NC[C@H](O)COc1ccccc1C1CCCC1 [PENBUTOLOL],Inactive,0,< 4
Nc1nc2c(ncn2CCC(CO)CO)c(=O)[nH]1 [PENCICLOVIR],Inactive,0,< 4
N=C(N)c1ccc(OCCCCCOc2ccc(C(=N)N)cc2)cc1 [PENTAMIDINE],Inactive,11.5,< 4
OC[C@H]1O[C@@H](n2cnc3c2NC=NC[C@H]3O)C[C@@H]1O [PENTOSTATIN],Inactive,0,< 4
CC(=O)CCCCn1c(=O)c2c(ncn2C)n(C)c1=O [PENTOXIFYLLINE],Inactive,1,>= 4

# System: Hepatotoxicity
# Experiment: FDA HLAED, serum glutamic oxaloacetic transaminase (SGOT) increase
# Settings: human
Compound,SGOT Increase - Activity Score,SGOT Increase - Index Value,SGOT Increase - Number of Reports
NCCC(O)(P(=O)(O)O)P(=O)(O)O [PAMIDRONIC ACID],Inactive,4.1,< 4
Fc1ccc([C@@H]2CCNC[C@H]2COc2ccc3c(c2)OCO3)cc1 [PAROXETINE],Inactive,1.2,>= 4
CC(C)(C)NC[C@H](O)COc1ccccc1C1CCCC1 [PENBUTOLOL],Inactive,0,< 4
Nc1nc2c(ncn2CCC(CO)CO)c(=O)[nH]1 [PENCICLOVIR],Inactive,0,< 4
N=C(N)c1ccc(OCCCCCOc2ccc(C(=N)N)cc2)cc1 [PENTAMIDINE],Inactive,5.7,< 4
OC[C@H]1O[C@@H](n2cnc3c2NC=NC[C@H]3O)C[C@@H]1O [PENTOSTATIN],Inactive,0,< 4
CC(=O)CCCCn1c(=O)c2c(ncn2C)n(C)c1=O [PENTOXIFYLLINE],Inactive,0.9,>= 4

# System: Hepatotoxicity
# Experiment: FDA HLAED, serum glutamic pyruvic transaminase (SGPT) increase
# Settings: human
Compound,SGPT Increase - Activity Score,SGPT Increase - Index Value,SGPT Increase - Number of Reports
NCCC(O)(P(=O)(O)O)P(=O)(O)O [PAMIDRONIC ACID],Inactive,4.1,< 4
Fc1ccc([C@@H]2CCNC[C@H]2COc2ccc3c(c2)OCO3)cc1 [PAROXETINE],Inactive,1,>= 4
CC(C)(C)NC[C@H](O)COc1ccccc1C1CCCC1 [PENBUTOLOL],Inactive,0,< 4
Nc1nc2c(ncn2CCC(CO)CO)c(=O)[nH]1 [PENCICLOVIR],Inactive,0,< 4
N=C(N)c1ccc(OCCCCCOc2ccc(C(=N)N)cc2)cc1 [PENTAMIDINE],Inactive,5.7,< 4
OC[C@H]1O[C@@H](n2cnc3c2NC=NC[C@H]3O)C[C@@H]1O [PENTOSTATIN],Inactive,0,< 4
CC(=O)CCCCn1c(=O)c2c(ncn2C)n(C)c1=O [PENTOXIFYLLINE],Inactive,0.3,< 4

# System: Hepatotoxicity
# Experiment: FDA HLAED, lactate dehydrogenase (LDH) increase
# Settings: human
Compound,LDH Increase - Activity Score,LDH Increase - Index Value,LDH Increase - Number of Reports
NCCC(O)(P(=O)(O)O)P(=O)(O)O [PAMIDRONIC ACID],Inactive,4.1,< 4
Fc1ccc([C@@H]2CCNC[C@H]2COc2ccc3c(c2)OCO3)cc1 [PAROXETINE],Inactive,0.4,>= 4
CC(C)(C)NC[C@H](O)COc1ccccc1C1CCCC1 [PENBUTOLOL],Inactive,0,< 4
Nc1nc2c(ncn2CCC(CO)CO)c(=O)[nH]1 [PENCICLOVIR],Inactive,0,< 4
N=C(N)c1ccc(OCCCCCOc2ccc(C(=N)N)cc2)cc1 [PENTAMIDINE],Inactive,5.7,< 4
OC[C@H]1O[C@@H](n2cnc3c2NC=NC[C@H]3O)C[C@@H]1O [PENTOSTATIN],Inactive,0,< 4
CC(=O)CCCCn1c(=O)c2c(ncn2C)n(C)c1=O [PENTOXIFYLLINE],Inactive,0.6,>= 4

# System: Hepatotoxicity
# Experiment: FDA HLAED, gamma-glutamyl transferase (GGT) increase
# Settings: human
Compound,GGT Increase - Activity Score,GGT Increase - Index Value,GGT Increase - Number of Reports
NCCC(O)(P(=O)(O)O)P(=O)(O)O [PAMIDRONIC ACID],Active,12.4,< 4
Fc1ccc([C@@H]2CCNC[C@H]2COc2ccc3c(c2)OCO3)cc1 [PAROXETINE],Inactive,0.5,>= 4
CC(C)(C)NC[C@H](O)COc1ccccc1C1CCCC1 [PENBUTOLOL],Inactive,0,< 4
Nc1nc2c(ncn2CCC(CO)CO)c(=O)[nH]1 [PENCICLOVIR],Inactive,0,< 4
N=C(N)c1ccc(OCCCCCOc2ccc(C(=N)N)cc2)cc1 [PENTAMIDINE],Inactive,0,< 4
OC[C@H]1O[C@@H](n2cnc3c2NC=NC[C@H]3O)C[C@@H]1O [PENTOSTATIN],Inactive,0,< 4
CC(=O)CCCCn1c(=O)c2c(ncn2C)n(C)c1=O [PENTOXIFYLLINE],Inactive,0,< 4
